Data on ten molecules can be found in US20030206968A1, “Fungicidal mixtures” (priority 1999, published 2003).

What all share (assay type): in vivo
One experiment concerns Alternaria solani. Description: Greenhouse, Alternaria solani on tomatoes, 1 day residual. To be noted: Example 25; rate 16 g/ha. The procedure:
(§1) The trials are carried out under greenhouse (Examples 1 to 32) or field conditions (Examples 33 to 40) in residual or curative applications. The fungicides are applied in single treatments, or in a combination comprising an azolopyrimidine of formula I and a compound selected from the classes (A), (B) and (C) as defined above. The compounds are applied in form of an aqueous spray mix obtained from a concentrated formulation or the technical material.
(§2) 1. Seed is planted in 6 cm diameter plastic pots and maintained in the greenhouse.
(§3) 2. When the primary leaf is fully expanded in the case of cereals or several leaves are present in the case of dicots, formulated test compounds are sprayed with a three nozzle overhead fungicide sprayer to near run-off. Alternatively, a single nozzle overhead track sprayer is used for application of the compounds to cereals at a rate of 200 l/ha. Plants are then allowed to air-dry.
(§4) 3. Inoculation precedes treatment in the case of curative evaluations and follows treatment in case of residual evaluations. For inoculation of powdery mildew disease, plants are set up on greenhouse benches with bottom watering mats and inoculated by dusting them with conidia from infected plants. Between inoculation and treatment for curative evaluations and between treatment and inoculation for residual evaluations, plants are maintained in the greenhouse with bottom watering.
(§5) For inoculation of non-powdery mildew diseases, an aqueous spore suspension of the pathogen is applied to the plant and the plants are kept 1-2 days in a moist infection chamber before being returned to the greenhouse where they are maintained by bottom watering.
(§6) 4. Disease on the foliage as percent leaf area with disease symptoms/signs is evaluated about 7 days after inoculation. In the case of wheat, the tips and bases of the leaves are excluded from the evaluation. [formula]
(§7) 1. Technical compounds are formulated in a solvent/surfactant system consisting of 5% acetone and 0.05% Tween 20 in deionized water. Compounds are dissolved in acetone prior to addition of the water; the Tween 20 can be added through either the acetone or the water. Dilutions are made using the solvent/surfactant system. Formulated compounds are prepared using deionized water.
(§8) 2. Two kinds of controls are included: Plants treated with the solvent/surfactant solution and inoculated (Solvent Blank). Untreated plants which are inoculated (Inoculated Control).
(§9) Assessments of the diseases took place at the indicated day after the application of the compounds. Per cent infected leaf area infected was evaluated. The efficacy of the compounds/compounds mixtures to control the diseases was calculated by using the formula given above under item 4: […]
(§10) Synergy was calculated using the % disease control values of specific treatments for the two COLBY formula given hereinabove
Fungicidal efficacy of the mixture of Azolopyrimidine C and different fungicides (1 day residual) against Alternaria solani on tomatoes The tank mix was obtained from an SC formulation containing 100 g Azolopyrimidine A per liter and WP formulations of dithianon (750 g/kg), captan (500 g/kg), cyprodinil (750 g/kg), mancozeb (800 g/kg), or a SC formulation of chlorothalonil (500 g/l), or a FS formulation of fenpiclonil (400 g/l), spectively.

In experiment [1] the test system is Puccinia recondita. The experiment can be described thus: Greenhouse, Puccinia recondita on wheat, 4 days residual. To be noted: Example 31. Here is the method: as §1, §2, §3, §4, §5, §6, §7, §8, §9, §10
Fungicidal efficacy of the mixture of (S)-Azolopyrimidine C in admixture with Azoxystrobin or Trifloxystrobin (4 days residual) against Puccinia recondita on wheat. The tank mixes were obtained from technical material of (S)-Azolopyrimidine C and Azoxystrobin or Trifloxystrobin.

In experiment [2] the test system is Puccinia recondita. Description: Greenhouse, Puccinia recondita on wheat, 2 days curative. To be noted: Example 28. The procedure: as §1, §2, §3, §4, §5, §6, §7, §8, §9, §10
Fungicidal efficacy of the mixture of (S)-Azolopyrimidine C in admixture with Azoxystrobin or Trifloxystrobin (2 days curative) against Puccinia recondita on wheat. The tank mixes were obtained from technical material of (S)-Azolopyrimidine C and Azoxystrobin or Trifloxystrobin.

The subject of experiment [3] is Blumeria graminis. The experiment can be described thus: Greenhouse, Blumeria graminis on wheat, 2 days curative. Particulars: Example 27. The procedure:
as §1, §2, §3, §4, §6, §7, §8, §9, §10
Fungicidal efficacy of the mixture of (S)-Azolopyrimidine C in admixture with Azoxystrobin or Trifloxystrobin (2 days curative) against Blumeria graminis on wheat. The tank mixes were obtained from technical material of (S)-Azolopyrimidine C and Azoxystrobin or Trifloxystrobin.

The test system of experiment [4] is Blumeria graminis. The experiment can be described thus: Greenhouse, Blumeria graminis on barley, 4 days residual. To be noted: Example 32. Here is the method: as §1, §2, §3, §4, §6, §7, §8, §9, §10
Fungicidal efficacy of the mixture of (S)-Azolopyrimidine C in admixture with Azoxystrobin (4 days residual) against Blumeria graminis on barley. The tank mixes were obtained from technical material of (S)-Azolopyrimidine C and Azoxystrobin.

Experiment [5] deals with Blumeria graminis. The experiment can be described thus: Greenhouse, Blumeria graminis on barley, 2 days curative. To be noted: Example 29. Here is the method: as §1, §2, §3, §4, §6, §7, §8, §9, §10
Fungicidal efficacy of the mixture of (S)-Azolopyrimidine C in admixture with Fenhexamid (2 days curative) against Blumeria graminis on barley. The tank mixes were obtained from technical material of (S)-Azolopyrimidine C and Fenhexamid.
Fungicidal efficacy of the mixture of (S)-Azolopyrimidine C in admixture with Azoxystrobin or Trifloxystrobin (2 days curative) against Blumeria graminis on barley. The tank mixes were obtained from technical material of (S)-Azolopyrimidine C and Azoxystrobin or Trifloxystrobin.

The subject of experiment [6] is Blumeria graminis. The experiment can be described thus: Field test, Blumeria graminis on wheat. To be noted: 17 days after application. Here is the method: as §1
For the field study formulated Azolopyrimidine A, B or C and formulated compounds from the classes (A), (B) and (C) were used.
as §9, §10
The compounds are applied according to good agricultural practice in the form of an aqueous spray mix obtained from a concentrated formulation or the technical material at a rate of 400 l/ha. The disease control is evaluated according to the formula given for the greenhouse tests.
Fungicidal efficacy of the mixture of (S)-Azolopyrimidine C+cyproconazole in the field against Blumeria graminis on wheat 17 days after application The tank mix was obtained from a SC formulation containing 100 g (S)-Azolopyrimidine C per liter and an EC formulation containing 60 g cyproconazole per liter.
Fungicidal efficacy of the mixture of (S)-Azolopyrimidine C+azoxystrobin in the field against Blumeria graminis on wheat 17 days after application The tank mix was obtained from a SC formulation containing 100 g (S)-Azolopyrimidine C per liter and a SC formulation containing 250 g azoxystrobin per kg.
Fungicidal efficacy of the mixture of Azolopyrimidine A and different cereal fungicides in the field against Blumeria graminis on wheat 15 days after application The tank mix was obtained from an SC formulation containing 100 g Azolopyrimidine A per liter and commercially available formulations of metconazole, epoxiconazole or kresoxim methyl, respectively.

The subject of experiment [7] is Blumeria graminis. Description: Greenhouse, Blumeria graminis on wheat, 4 days residual. Particulars: Example 30. The procedure: as §1, §2, §3, §4, §6, §7, §8, §9, §10
Fungicidal efficacy of the mixture of (S)-Azolopyrimidine C in admixture with Azoxystrobin or Trifloxystrobin (4 days residual) against Blumeria graminis on wheat. The tank mixes were obtained from technical material of (S)-Azolopyrimidine C and Azoxystrobin or Trifloxystrobin.

A further experiment relates to Leptosphaeria nodorum. The experiment can be described thus: Greenhouse, Leptosphaeria nodorum on wheat, 3 day residual. To be noted: Example 1. Here is the method:
as §1, §2, §3, §4, §5, §6, §7, §8, §9, §10
Fungicidal efficacy of the mixture of Azolopyrimidine A+fenpropimorph (3 day residual) against Leptosphaeria nodorum on wheat The tank mix was obtained from technical material of Azolopyrimidine A and an EC formulation containing 750 g fenpropimorph per liter.
Fungicidal efficacy of the mixture of Azolopyrimidine A+tebuconazole (3 day residual) against Leptosphaeria nodorum on wheat The tank mix was obtained from technical material of Azolopyrimidine A and an EC formulation containing 250 g tebuconazole per liter.

A further experiment concerns Erysiphe cichoracearum. The experiment can be described thus: Greenhouse, Erysiphe cichoracearum on cucumbers, 1 day residual. Particulars: Example 23. Here is the method:
as §1, §2, §3, §4, §6, §7, §8, §9, §10
Fungicidal efficacy of the mixture of Azolopyrimidine C+triforine (1 day residual) against Erysiphe cichoracearum on cucumbers
the tank mix was obtained from a SC formulation containing 100 g of Azolopyrimidine C per liter and an DC formulation containing and 190 g of triforine per liter.
Fungicidal efficacy of the mixture of Azolopyrimidine C+cyprodinil (1 day residual) against Erysiphe cichoracearum on cucumbers The tank mix was obtained from a SC formulation containing 100 g of Azolopyrimidine C per liter and a WG formulation containing and 750 g of cyprodinil per kg.

As for `O=C1C2CC=CCC2C(=O)N1SC(Cl)(Cl)Cl` (stereo not drawn) [captan], the “Observed Efficacy” value in the experiment with Alternaria solani amounted to 18%.

In the case of `N#Cc1c[nH]cc1-c1cccc(Cl)c1Cl` [fenpiclonil], in the experiment on Alternaria solani, the “Observed Efficacy” value was 76%.

As for `CO/C=C(/C(=O)OC)c1ccccc1Oc1cc(Oc2ccccc2C#N)ncn1` [Azoxystrobin], the “Observed Efficacy” value with Puccinia recondita [1] (dose rate 3.1 ppm) turned out to be 0%; in the experiment with Puccinia recondita [1] (dose rate 6.3 ppm), 0%; in the experiment with Puccinia recondita [1] (dose rate 12.5 ppm) it was 0%; in the experiment on Puccinia recondita [1] (dose rate 25 ppm), 0%; with Puccinia recondita [1] (dose rate 50 ppm), 8%; in the experiment on Puccinia recondita [2] (dose rate 1.6 ppm), 0%. Further, the “Observed Efficacy” value with Puccinia recondita [2] (dose rate 3.1 ppm) is 25%; in the experiment on Puccinia recondita [2] (dose rate 6.3 ppm), 48%; with Puccinia recondita [2] (dose rate 12.5 ppm), 85%; in the experiment with Puccinia recondita [2] (dose rate 25 ppm), 95%; in the experiment on Blumeria graminis [3] (dose rate 1.6 ppm), 0%; in the experiment with Blumeria graminis [3] (dose rate 3.1 ppm), 2%. The “Observed Efficacy” value worked out at 21% in the experiment with Blumeria graminis [3] (dose rate 6.3 ppm); 28% in the experiment on Blumeria graminis [3] (dose rate 12.5 ppm); 48% in the experiment with Blumeria graminis [3] (dose rate 25 ppm); 61% with Blumeria graminis [3] (dose rate 50 ppm); 0% in the experiment with Blumeria graminis [4] (dose rate 1.6 ppm); 3% in the experiment with Blumeria graminis [4] (dose rate 3.1 ppm). The “Observed Efficacy” value in the experiment on Blumeria graminis [4] (dose rate 6.3 ppm) was determined as 3%; in the experiment on Blumeria graminis [4] (dose rate 12.5 ppm), 3%; with Blumeria graminis [4] (dose rate 25 ppm), 2%; with Blumeria graminis [4] (dose rate 50 ppm), 9%; in the experiment with Blumeria graminis [5] (dose rate 1.6 ppm) it was 0%; in the experiment with Blumeria graminis [5] (dose rate 3.1 ppm), 10%. For the same molecule, the “Observed Efficacy” value is 21% in the experiment with Blumeria graminis [5] (dose rate 6.3 ppm); 49% with Blumeria graminis [5] (dose rate 12.5 ppm); 73% with Blumeria graminis [5] (dose rate 25 ppm); 87% in the experiment on Blumeria graminis [5] (dose rate 50 ppm); 49 in the experiment on Blumeria graminis [6] (azoxystrobin 75 g/ha alone); 0% in the experiment with Blumeria graminis [7] (dose rate 3.1 ppm). Also, the “Observed Efficacy” value in the experiment with Blumeria graminis [7] (dose rate 6.3 ppm) amounted to 0%; in the experiment on Blumeria graminis [7] (dose rate 12.5 ppm) it was 7%; with Blumeria graminis [7] (dose rate 25 ppm), 9%; in the experiment with Blumeria graminis [7] (dose rate 50 ppm), 9%.

For `CC(Cc1ccc(C(C)(C)C)cc1)CN1C[C@@H](C)O[C@@H](C)C1` (stereo partly drawn) [fenpropimorph], the results for the “Observed Efficacy” value with Leptosphaeria nodorum (dose rate 0.5 ppm) and in the experiment on Leptosphaeria nodorum (dose rate 5 ppm) were 19% and 15%, respectively.

For the molecule Trifloxystrobin, the “Observed Efficacy” value in the experiment on Puccinia recondita [1] (dose rate 3.1 ppm), in the experiment with Puccinia recondita [1] (dose rate 6.3 ppm), in the experiment with Puccinia recondita [1] (dose rate 12.5 ppm), with Puccinia recondita [1] (dose rate 25 ppm), in the experiment with Puccinia recondita [1] (dose rate 50 ppm) and in the experiment on Puccinia recondita [2] (dose rate 1.6 ppm) was 0% in each case. The “Observed Efficacy” value in the experiment with Puccinia recondita [2] (dose rate 3.1 ppm) is reported as 0%; in the experiment with Puccinia recondita [2] (dose rate 6.3 ppm) it was 0%; in the experiment on Puccinia recondita [2] (dose rate 12.5 ppm) it was 0%; in the experiment with Puccinia recondita [2] (dose rate 25 ppm), 0%; in the experiment on Blumeria graminis [3] (dose rate 1.6 ppm) it was 34%; in the experiment with Blumeria graminis [3] (dose rate 3.1 ppm) it was 55%. The “Observed Efficacy” value in the experiment with Blumeria graminis [3] (dose rate 6.3 ppm) is recorded as 78%; with Blumeria graminis [3] (dose rate 12.5 ppm), 89%; in the experiment on Blumeria graminis [3] (dose rate 25 ppm), 98%; in the experiment on Blumeria graminis [3] (dose rate 50 ppm), 99%; with Blumeria graminis [5] (dose rate 1.6 ppm) it was 22%; with Blumeria graminis [5] (dose rate 3.1 ppm) it was 36%. Further, the “Observed Efficacy” value amounted to 59% in the experiment on Blumeria graminis [5] (dose rate 6.3 ppm); 74% in the experiment with Blumeria graminis [5] (dose rate 12.5 ppm); 89% with Blumeria graminis [5] (dose rate 25 ppm); 96% in the experiment on Blumeria graminis [5] (dose rate 50 ppm); 0% in the experiment with Blumeria graminis [7] (dose rate 3.1 ppm); 0% in the experiment with Blumeria graminis [7] (dose rate 6.3 ppm). The “Observed Efficacy” value in the experiment on Blumeria graminis [7] (dose rate 12.5 ppm) came to 0%; in the experiment on Blumeria graminis [7] (dose rate 25 ppm) it was 0%; with Blumeria graminis [7] (dose rate 50 ppm), 14%.

In the case of `N#Cc1c(Cl)c(Cl)c(Cl)c(C#N)c1Cl` [chlorothalonil], in the experiment with Alternaria solani, the “Observed Efficacy” value was 13%.

With `O=CNC(N1CCN(C(NC=O)C(Cl)(Cl)Cl)CC1)C(Cl)(Cl)Cl` (stereo not drawn) [triforine], the “Observed Efficacy” value with Erysiphe cichoracearum (dose rate 4 ppm) came out at 0%; in the experiment on Erysiphe cichoracearum (dose rate 16 ppm) it was 15%.

As for `CC(C1CC1)C(O)(Cn1cncn1)c1ccc(Cl)cc1` (stereo not drawn) [cyproconazole], the “Observed Efficacy” value with Blumeria graminis [6] (cyproconazole 15 g/ha alone) came out at 86; with Blumeria graminis [6] (cyproconazole 30 g/ha alone), 82.

Take `N#Cc1sc2c(=O)c3ccccc3c(=O)c=2sc1C#N` [dithianon]: the “Observed Efficacy” value with Alternaria solani was determined as 50%.

Turning to mancozeb, in the experiment on Alternaria solani, the “Observed Efficacy” value is 27%.
